Experimental data: patent US20210363152A1, “AMINOAZINE AMIDES” (Hoffmann-La Roche Inc., priority 2018, published 2021)

Target: T1, Autotaxin enzyme (ATX) (Homo sapiens, UniProt Q13822)
T1 construct: purchased Echelon Biosciences, Inc. E-4000
Test: In vitro ATX assay (enzymatic ATX inhibition, LPC 14:0 substrate, choline oxidase/HRP absorbance readout)
Format: biochemical
Settings: 0.3 mM LPC 14:0, 37° C., 4 hours, absorbance 555 nm
Description: • Assay buffer: 100 mM Tris-HCl, pH 9.0, 500 mM NaCl, 5 mM MgCl2, 30 μM CoCl2, 0.05% Triton X-100 • Assay buffer II: 4.5 mM 4-AAP, 2.7 mM TOOS, 21.2 U/mL HRP, 3 U/mL CO, In 50 mM Tris-HCl pH 8.0, 4.5 mM MgCl2
A compound preparation plate (Nunc 249944) was prepared by adding 30 mM stock solution (in DMSO) of test compound and performing a serial full-log dilution down to 30 nM. Two μL/well were transferred from the first compound prep plate to a compound dilution plate (Corning, 3641) and 198 μL assay buffer I was added for a […].
A 10 ng/mL solution of ATX was prepared by diluting in assay buffer I, and 80 μL/well were added to the assay plate (Corning, 3641); negative control wells contained 80 μL/well assay buffer I only (no ATX). Ten μL/well from the compound dilution plate (containing serially diluted test compound or DMSO) were added to the assay plate, which was then incubated at 37° C. for 15 minutes. A solution of LPC 14:0 was prepared in assay buffer I at 3 mM and 10 μl/well were added to the assay plate, for a final concentration of 0.3 mM LPC, and returned to 37° C. incubator for 4 hours. After 4 hour incubation, 100 μL/well of assay buffer II was added to all wells of the assay plate. The plate was incubated at RT for 15 minutes, prior to reading on FlexStation in absorbance mode, 555 nm. Results in the enzymatic ATX inhibition assay are provided for compounds of formula (I). An IC50 value of “A” is less than 100 nM, “B” is equal to or greater than 100 nM but less than 1 μM, “C” is equal to or greater than 1 μM.

Row | Structure (SMILES) | IC50 [nM]
1 | CCN1CC2(CCN2C(=O)c2cnc(NCc3cc(OC(F)(F)F)cc(C4CC4)c3)nc2)C1 [Example 143, (2-((3-Cyclopropyl-5-(trifluoromethoxy)benzyl)amino)pyrimidin-5-yl)(6-ethyl-1,6-diazaspiro[3.3]heptan-1-yl)methanone] | < 100
2 | O=C(c1cnc(NCc2cccc(OC(F)F)c2)nc1)N1CCC12COC2 [Example 17] | ≥ 1000
3 | CC(C)c1cc(CNc2ncc(C(=O)N3CCC3C(C)(C)O)cn2)cc(OC(F)(F)F)c1 (stereo not shown) [Example 64] | < 100
4 | CCOc1cc(CNc2ncc(C(=O)N3CCC34COC4)cn2)cc(C2CC2)c1 [Example 67] | < 100
5 | CC1CCN1C(=O)c1cnc(NC2Cc3ccc(Cl)cc3C2)nc1 (stereo not shown) [Example 44] | < 100
6 | CC(C)c1cc(CNc2ncc(C(=O)N3CCCC3)cn2)cc(OC(F)(F)F)c1 [Example 21] | < 100
7 | CS(=O)(=O)c1cc(CNc2ncc(C(=O)N3CCC34COC4)cn2)cc(OC(F)(F)F)c1 [Example 137, (2-((3-(Methylsulfonyl)-5-(trifluoromethoxy)benzyl)amino)pyrimidin-5-yl)(6-oxa-1-azaspiro[3.3]heptan-1-yl)methanone] | ≥ 1000
8 | CC(C)(O)[C@@H]1CCN1C(=O)c1cnc(N[C@@H]2Cc3ccc(Cl)cc3C2)nc1 [Example 135] | < 100
9 | CCOc1cc(CNc2ncc(C(=O)N3CCC34COC4)cn2)cc(OCC)c1 [Example 53] | < 100
10 | CC(C)(C)c1cc(CNc2ncc(C(=O)N3CCC34COC4)cn2)cc(OC(F)(F)F)c1 [Example 4] | < 100
11 | CS(=O)(=O)c1ccc2c(c1)CC(Nc1ncc(C(=O)N3CCC34COC4)cn1)C2 (stereo not shown) [Example 138, (2-((5-(Methylsulfonyl)-2,3-dihydro-1H-inden-2-yl)amino)pyrimidin-5-yl)(6-oxa-1-azaspiro[3.3]heptan-1-yl)methanone] | ≥ 1000
12 | CC(C)c1cc(CNc2ncc(C(=O)N3CCC34COC4)cn2)cc(S(F)(F)(F)(F)F)c1 [Example 19] | 100 to 1000
13 | O=C(c1cnc(NC2Cc3ccc(Cl)cc3C2)nc1)N1CCC1C(F)F (stereo not shown) [Example 45] | < 100
14 | CN1CCC2(CCN2C(=O)c2cnc(NCc3cc(OC(F)(F)F)cc(C4CC4)c3)nc2)C1 (stereo not shown) [Example 155, (2-((3-Cyclopropyl-5-(trifluoromethoxy)benzyl)amino)pyrimidin-5-yl)(6-methyl-1,6-diazaspiro[3.4]octan-1-yl)methanone] | < 100
15 | CCOc1ccc2c(c1)CC(Nc1ncc(C(=O)N3CCC34COC4)cn1)C2 (stereo not shown) [Example 162, (2-((5-Ethoxy-2,3-dihydro-1H-inden-2-yl)amino)pyrimidin-5-yl)(6-oxa-1-azaspiro[3.3]heptan-1-yl)methanone] | 100 to 1000
16 | CC(C)c1cc(CNc2cnc(C(=O)N3CCC3)cn2)cc(OC(F)(F)F)c1 [Example 74, Azetidin-1-yl(5-((3-isopropyl-5-(trifluoromethoxy)benzyl)amino)pyrazin-2-yl)methanone] | 100 to 1000
17 | O=C(c1cnc(NCc2cc(C3CC3)cc(C3CC3)c2)nc1)N1CCC12COC2 [Example 37] | < 100
18 | CC(C)(O)C1CCN1C(=O)c1cnc(NCc2cc(OC(F)(F)F)cc(C3CC3)c2)nc1 (stereo not shown) [Example 115, (2-((3-cyclopropyl-5-(trifluoromethoxy)benzyl)ami-no)pyrimidin-5-yl)(2-(2-hydroxypropan-2-yl)azetidin-1-yl)methanone] | < 100
19 | O=C(c1cnc(NC2Cc3ccc(C4CC4)cc3C2)nc1)N1CCC12COC2 (stereo not shown) [Example 125, (2-((5-Cyclopropyl-2,3-dihydro-1H-inden-2-yl)amino)pyrimidin-5-yl)(6-oxa-1-azaspiro[3.3]heptan-1-yl)methanone] | < 100
20 | CC(=O)N1CC2(CCN2C(=O)c2cnc(NC3Cc4ccc(Cl)cc4C3)nc2)C1 (stereo not shown) [Example 154, 1-(1-(2-((5-Chloro-2,3-dihydro-1H-inden-2-yl)amino)pyrimidine-5-carbonyl)-1,6-diazaspiro[3.3]heptan-6-yl)ethanone] | < 100
21 | O=C(c1cnc(NCc2cc(OC(F)(F)F)cc(C3CC3)c2)nc1)N1CCC12CCCOC2 (stereo not shown) [Example 108, (2-((3-cyclopropyl-5-(trifluoromethoxy)benzyl)ami-no)pyrimidin-5-yl)(6-oxa-1-azaspiro[3.5]nonan-1-yl)-methanone] | < 100
22 | CC1(C)CCN1C(=O)c1cnc(NCc2cc(OC(F)(F)F)cc(C3CC3)c2)nc1 [Example 89, (2-((3-cyclopropyl-5-(trifluoromethoxy)benzyl)ami-no)pyrimidin-5-yl)(2,2-dimethylazetidin-1-yl)methanone] | < 100

Row | Structure (SMILES) | IC50 [nM]
23 | O=C(c1cnc(NCc2cc(OC(F)(F)F)cc(C3CC3)c2)nc1)N1CCC1 [Example 81, azetidin-1-yl(2-((3-cyclopropyl-5-(trifluoro-methoxy)benzyl)amino)-pyrimidin-5-yl)methanone] | < 100
24 | CS(=O)(=O)c1cccc(CNc2ncc(C(=O)N3CCC34COC4)cn2)c1 [Example 16] | ≥ 1000
25 | CC(C)Oc1cc(CNc2ncc(C(=O)N3CCC3C(C)(C)O)cn2)cc(C2CC2)c1 (stereo not shown) [Example 59] | < 100
26 | Cc1cc2c(cc1C)CC(Nc1ncc(C(=O)N3CCC34COC4)cn1)C2 [Example 128, (2-((5,6-Dimethyl-2,3-dihydro-1H-inden-2-yl)amino)pyrimidin-5-yl)(6-oxa-1-azaspiro[3.3]heptan-1-yl)methanone] | ≥ 1000
27 | COC[C@@H]1CCN1C(=O)c1cnc(NCc2cc(OC(F)(F)F)cc(C3CC3)c2)nc1 [Example 104, (S)-(2-((3-cyclopropyl-5-(trifluoromethoxy)benzyl)ami-no)pyrimidin-5-yl)(2-(methoxymethyl)azetidin-1-yl)methanone] | < 100
28 | O=C(c1cnc(NC2Cc3ccc(Cl)cc3C2)nc1)N1CCC12CCCOC2 (stereo not shown) [Example 48] | < 100
29 | CC(C)(O)C1CCN1C(=O)c1cnc(NC2Cc3ccc(Cl)cc3C2)nc1 (stereo not shown) [Example 60] | < 100
30 | O=C(c1cnc(NCc2cc(F)cc(OC(F)(F)F)c2)nc1)N1CCC12COC2 [Example 26] | 100 to 1000
31 | CC(C)c1cc(CNc2ncc(C(=O)N3CCC3C)cn2)cc(OC(F)(F)F)c1 (single isomer, unassigned) [Example 70, (2-((3-Isopropyl-5-(trifluoromethoxy)benzyl)amino)pyrimidin-5-yl)(2-methylazetidin-1-yl)methanone] | < 100
32 | CC1CC(C)N1C(=O)c1cnc(NCc2cc(OC(F)(F)F)cc(C3CC3)c2)nc1 (single isomer, unassigned) [Example 118, (2-((3-Cyclopropyl-5-(trifluoromethoxy)-benzyl)amino)pyrimidin-5-yl)(2,4-dimethylazetidin-1-yl)methanone] | < 100
33 | CC1CCN1C(=O)c1cnc(NCc2cc(C(F)(F)F)cc(C(F)(F)F)c2)nc1 (stereo not shown) [Example 9] | 100 to 1000
34 | O=C(c1cnc(NCc2cccc(OC(F)(F)F)c2)nc1)N1CC2(COC2)C1 [Example 3] | ≥ 1000
35 | Cc1cc(CNc2ncc(C(=O)N3CCC3C)cn2)cc(OC(F)(F)F)c1 (stereo not shown) [Example 12] | 100 to 1000
36 | O=C(c1cnc(NCc2cc(OC(F)(F)F)cc(C3CC3)c2)nc1)N1CCC12CCOC2 (single isomer, unassigned) [Example 117, (2-((3-Cyclopropyl-5-(trifluoromethoxy)-benzyl)amino)pyrimidin-5-yl)(6-oxa-1-azaspiro[3.4]octan-1-yl) methanone] | < 100
37 | CC(C)(O)C1CN(C(=O)c2cnc(NCc3cc(OC(F)(F)F)cc(C4CC4)c3)nc2)C1 [Example 84, (2-((3-cyclopropyl-5-(trifluoromethoxy)benzyl)ami-no)pyrimidin-5-yl)(3-(2-hydroxypropan-2-yl)azetidin-1-yl)methanone] | 100 to 1000
38 | O=C(c1cnc(NCc2cc(OC(F)(F)F)cc(C3CC3)c2)nc1)N1CCc2cccnc21 [Example 90, (2-((3-cyclopropyl-5-(trifluoromethoxy)benzyl)ami-no)pyrimidin-5-yl)(2,3-dihydro-1H-pyrrolo[2,3-b]pyridin-1-yl)methanone] | 100 to 1000
39 | CC(C)N1CC2(CCN2C(=O)c2cnc(NCc3cc(OC(F)(F)F)cc(C4CC4)c3)nc2)C1 [Example 147, (2-((3-Cyclopropyl-5-(trifluoromethoxy)benzyl)amino)pyrimidin-5-yl) (6-isopropyl-1,6-diazaspiro[3.3]heptan-1-yl)methanone] | < 100
40 | O=C(c1cnc(NCc2cccc(Cl)c2)nc1)N1CCC12COC2 [Example 15] | ≥ 1000
41 | CC1CCN1C(=O)c1cnc(NCc2cc(OC(F)(F)F)cc(C(C)(C)C)c2)nc1 (stereo not shown) [Example 5] | 100 to 1000
42 | O=C(c1cnc(NCc2cc(OC(F)(F)F)cc(C3CC3)c2)nc1)N1CCC1C(F)(F)F (stereo not shown) [Example 114, (2-((3-cyclopropyl-5-(trifluoromethoxy)benzyl)ami-no)pyrimidin-5-yl)(2-(trifluoromethyl)azetidin-1-yl)methanone] | 100 to 1000
43 | COc1ccc2c(c1)CC(Nc1ncc(C(=O)N3CCC34COC4)cn1)C2 (stereo not shown) [Example 32] | 100 to 1000
